Test: Human HepG2 cell viability assay in 384 well format
Type: toxicity, cell-based
Parameters: dose 125 nL, time 70.5 hour; concentration not given beside the values
Conditions: HepG2 cells, read-out: Inhibition

SMILES	cytotoxicity at 70.5 h [%]
COCCNC(=O)[C@@H](C)[C@@H]1CCc2c(C)cc(OCC(=O)O)c(C)c2C1	-6
CC[C@H]1CN(S(=O)(=O)c2ccc(OC)cc2)CC[C@H]1CC(=O)O	-9.14
COCCOc1ccc(C(=O)N[C@@H]2CNCCC[C@H]2O)cc1	-2.53
Cn1ccnc1CN1CCOC[C@H]1c1nc(C(C)(C)C)co1	-1.75
CN(C)c1ccc(-c2noc([C@@H]3CCCN3)n2)cn1	6.36
COCCNc1ccc(-c2noc([C@@H]3CCCN3)n2)cn1	6.15
CN1[C@@H](CCC(=O)NCc2ccc(F)cc2)CNC(=O)[C@H]2NCC[C@H]21	-2.11
c1ccc(-c2nnc([C@H]3CCN(C4CCOCC4)C3)o2)cc1	-0.562
Cn1cncc1-c1nnc([C@H]2CCN(CC3CCCCC3)C2)o1	-1.28
c1ccc(Cc2nnc([C@H]3CCN(C4CCCCC4)C3)o2)cc1	1.09
NC(=O)CN1C(=O)CO[C@H]2CN(Cc3ccc(C(F)(F)F)cc3)C[C@H]21	-1.74
COCCN1C(=O)CO[C@H]2CN(CCCc3ccccc3)C[C@H]21	-1.96
Clc1ccc(-c2c[nH]c([C@@H]3COCCN3)n2)cc1	-0.826
CC(=O)N1CCC(N2CCOC[C@H]2c2nc(C(C)(C)C)c[nH]2)CC1	-2.09
COc1ccccc1C(=O)Nc1ccc([C@@H](O)[C@H]2COCC(=O)N2)cc1	-4.28
N#Cc1cccc(C(=O)Nc2ccc([C@@H](O)[C@H]3COCC(=O)N3)cc2)c1	-9.14
Fc1ccc(CN2CCOC[C@H](Oc3cccnc3)C2)cc1	10.5
CNC(=O)C(C)(C)N1CCC[C@H]1C(=O)NC1CC1	-9.14
Oc1ccccc1CN1C[C@H](O)C[C@H]1c1nc(Cc2ccccc2)no1	-6.19
CN1C[C@@H](NC(=O)C2CC2)C[C@H]1c1nc(-c2cnccn2)no1	1.69
CCN(CC)C1(Cc2cc(CC(C)C)on2)COC1	0.19
O=C1CO[C@H]2CN(S(=O)(=O)c3ccccc3)C[C@H]2N1Cc1ccccc1	-9.3
Cc1ccccc1CN1C[C@@H]2OCC(=O)N(CC(N)=O)[C@@H]2C1	-0.694
Cn1ccnc1CN1C[C@@H](F)[C@@H](OCc2nc3cnccc3[nH]2)C1	13.1
CN(C)[C@@H]1CO[C@H](CNC(=O)CC(C)(C)C)[C@H]1O	-0.485
O=C(NC[C@H]1OC[C@@H](NC2CCC(F)(F)CC2)[C@@H]1O)N1CCOCC1	-6.74

SMILES	cytotoxicity at 70.5 h [%]
O=C1N(Cc2ccccn2)C[C@H]2CN(S(=O)(=O)c3ccccc3)CCN12	-0.174
Cc1nc(C)c(CN2CCOC[C@H](Oc3ccc(S(C)(=O)=O)cc3)C2)s1	0.478
Cc1ccc(CN2CC[C@H](c3nnc(COc4ccc(F)cc4)o3)C2)o1	-6.96
O=C(NCc1ccccc1)[C@@H]1Cc2[nH]cnc2CN1CC1CC1	-3.43
CN1C[C@@H](NC(=O)c2ccccc2)C[C@H]1c1nc(-c2cnccn2)no1	10.6
Cc1noc([C@@H]2C[C@H](NC(=O)C3CCCCC3)CN2C)n1	0.213
COCC(=O)Nc1ccc(-c2noc([C@@H]3CCCN3CC(C)C)n2)cn1	10.2
CC(C)N1CC[C@H](c2nc3ccc(C(F)(F)F)cc3[nH]2)C1	-5.84
COc1ccc2[nH]c(C[C@@H]3C[C@@H](C(C)C)[C@H](CN(C)C)C=C3C)nc2c1	-3.19
CN1CCC(N[C@@H]2CO[C@H](CNC(=O)C3CCCC3)[C@H]2O)CC1	-3.54
CC(=O)N1CCN2C(=O)N(Cc3ccc(F)cc3)C[C@H]2C1	-13
O=C(c1ccno1)N1CCN2C(=O)N(Cc3ccc(F)cc3)C[C@H]2C1	-8.27
O=C1N(Cc2ccccn2)C[C@H]2CN(C3CCC3)CCN12	2.38
O=S(=O)(c1ccc(F)cc1)N1CCOC[C@H](Oc2cnccn2)C1	12.5
CO[C@H]1COCCN(C(=O)c2ccno2)C1	-1.71
CO[C@H]1COCCN(C(=O)c2cc(C)oc2C(F)(F)F)C1	-3.96
CNC(=O)[C@@H](C1CCCCC1)N1CCC[C@H]1C(=O)NC1CC1	-20.1
CCNC(=O)O[C@H]1COCCN(c2nc3ccccc3s2)C1	-2.95
Cc1cccc(CNC[C@H]2Cn3cc(-c4ccccc4)nc3CO2)n1	-7.12
CN1CCC(N2CCOC[C@H](OCC(=O)N(C)C)C2)CC1	0.483
CC[C@H]1CN2CC[C@H]1C[C@@H]2CNCc1ccc2c(c1)OCO2	-5.69
O=C(c1cc(CC2(NC3CCCCC3)COC2)no1)N1CCCCC1	11.7
CC(C)CS(=O)(=O)Nc1ccc([C@H]2OCC(=O)N[C@@H]2CO)cc1	0.34
O=C(NC[C@H]1OC[C@@H](NC(=O)C2CCCC2)[C@@H]1O)c1ccncc1	13.7
CC(C)N1CCN2C(=O)N(C3CCCCC3)C[C@H]2C1	0.287
COc1ccc(CNC[C@H]2Cn3ccnc3CO2)cn1	-2.5

SMILES	cytotoxicity at 70.5 h [%]
O=C(O)C[C@@H]1CCN(C(=O)c2cccs2)C[C@@H]1CCN1CCCCC1	-3.9
COCCN1CCN(C(=O)C[C@@H]2C[C@@H](C(C)C)[C@H](CO)C=C2C)CC1	-3.05
CC[C@H]1CN(C(=O)c2cccnc2)CC[C@H]1CC(=O)NCCOC	-1.87
CC(C)(C)c1cn(C[C@H]2CC3CCN2C[C@@H]3C(=O)N2CCOCC2)nn1 (some centres not stated)	2.28
COCc1cn(C[C@H]2CC3CCN2C[C@@H]3C(=O)Nc2ccccc2)nn1 (some centres not stated)	-6.64
O=C(Nc1ccccc1)[C@H]1CN2CCC1C[C@@H]2Cn1cc(CO)nn1 (some centres not stated)	-9.02
CC[C@H]1CN2CC[C@H]1C[C@@H]2CNC(=O)c1ccco1	-1.78
CC[C@H]1CN2CC[C@H]1C[C@@H]2CNC(=O)Nc1cccc(C#N)c1	13.7
CC[C@H]1CN2CC[C@H]1C[C@@H]2CNC(=O)NC1CCCCC1	4.29
CC[C@H]1CN(C(=O)C2CC2)CC[C@H]1CC(=O)NCCN1CCOCC1	-0.373
COCC(=O)N1CCN(C(C)=O)C[C@@H]1C(=O)OC	12.2
O=C(NC[C@H]1C[C@@H]2CCN1C[C@@H]2CN1CCCCC1)Nc1ccsc1	-16
O=C(NC[C@H]1C[C@@H]2CCN1C[C@@H]2CN1CCCCC1)c1ccco1	0.157
COCC(=O)NC[C@H]1C[C@@H]2CCN1C[C@@H]2CN(C)c1ccccc1	0.807
CC[C@H]1CN(C(=O)C(C)(C)C)CC[C@H]1CC(=O)O	7.7
COc1ncccc1CN1CCc2[nH]nc(C(=O)N(C)C)c2C1	-11.3
Cc1cccc(CN2CCCC23CCNC3)n1 (configuration not stated)	24.8
COCCN1C[C@H]2CCN(C(=O)c3cc(C)on3)CC[C@H]2S1(=O)=O	-5.47
CN1CCN(Cc2cccnc2)C(=O)C12CCN(S(C)(=O)=O)CC2	-5.92
C[C@@H]1C[C@H]2CN(S(=O)(=O)c3ccc(F)cc3)C[C@H]2O1	-4.41
Cn1cccc1C(=O)N1C[C@H]2CN(Cc3cccnc3)C[C@H]2C1	-1.49
COc1ccc(C[C@H]2CNCC[C@@H]2OCC2CC2)cc1	-8.25
CN1C(=O)C2(CCN(C(=O)C3CCOCC3)CC2)c2ccccc21	-3.31
O=C(CCc1ccccc1)N[C@H]1CC[C@@]2(CCC(=O)N2)CC1	-8.44
COc1ccc(C[C@H]2CN(C(=O)c3cc(C)no3)CC[C@H]2OC)cc1	-5.12
CCOC(=O)N1CC(C)=C(C)CN1C(=O)Nc1ccc(Cl)c(Cl)c1	6.17

SMILES	cytotoxicity at 70.5 h [%]
Cc1cc(Br)c(O)c(-c2nc(N3CCOCC3)sc2C)c1	5.07
NC(=O)c1c[nH]nc1NC(=O)c1cccc(Cl)c1	-3.76
COc1ccccc1-c1cc(C(F)(F)F)c2c(C)nn(CC(=O)O)c2n1	18.1
CCc1cc(C(F)(F)F)c2c(C)nn(CC(=O)O)c2n1	4.66
CCn1ncc(Br)c1CN(C)S(=O)(=O)c1ccc(C)cc1	8.37
CNC(=O)c1cccc(C2CNCCN2C)c1 (configuration not stated)	19.9
CC(C)N1CCC(Cc2cc(-c3ccccc3C(=O)O)ncn2)CC1	16.5
CNC(=O)[C@@H](c1ccccc1F)N1CCC[C@H]1C(=O)NC1CC1	-4.55
CNC(=O)[C@@H](c1ccccc1)N1CCC[C@H]1C(=O)NC1CCCCC1	-2.47
CNC(=O)[C@@H](c1ccccc1)N1CCC[C@H]1C(=O)NCc1ccccn1	-6.43
O[C@@H]1C[C@@](CNCc2cccc(Cl)c2)(COc2cccnc2)C[C@@H]1O	-2.94
Cc1cccc(CN2C[C@@H](C)[C@@]3(CCN(CC(=O)N(C)C)C3=O)C2)c1	-10
Cc1nn(C)c(C)c1S(=O)(=O)N1CC[C@@H]2O[C@@H](C)C[C@H]2C1	-11.2
CCN1CC[C@@]2(C(=O)N3CCOCC3)CCN(C(=O)C(C)C)CC[C@@H]12	18.4
Cn1cccc1C(=O)N1C[C@H]2CN(Cc3cccc(F)c3)C[C@H]2C1	-6.11
CCN1C[C@@H]2[C@@H](OC)CCN(C(=O)Cc3ccsc3)[C@@H]2C1	-5.4
Cc1ccc(CN2CCC3(CC2)C(=O)Nc2ccccc23)s1	-7.74
CN1C(=O)CC(c2ccccc2)C12CCN(CC1CCOCC1)CC2 (configuration not stated)	-6.6
CN(C)C(=O)CC1CC2(CCN(CC3CC3)CC2)Oc2ccccc21 (configuration not stated)	-3.69
O=C1Nc2ccccc2C12CCN(c1nccs1)CC2	-3.17
O=C1CC[C@]2(CC[C@@H](NC(=O)NCc3cccnc3)CC2)N1	-2.72
Cc1ccc(CN2CC[C@H]3NC(=O)CC[C@@H]32)o1	-6.53
COCCN1C[C@@H]2[C@@H](OC)CCN(C(=O)Cc3ccsc3)[C@@H]2C1	-8.01
COCC(=O)N1CCC2(CCN(Cc3cccnc3)C2)CC1	-7.11

Source: ChEMBL document CHEMBL3507680, “University of Dundee, Gates Library screen for HepG2 cell viability”
